# Data taken from US9115122B2, “Non-ATP dependent inhibitors of extracellular signal-regulated kinase (ERK)” (UNIVERSITY OF MARYLAND, BALTIMORE, priority 2012, dated 2015).
# Legend:
# [1] = biological target: ERK2 R275A (Rattus norvegicus (Rat), UniProt P63086, R275A); experiment: Fluorescence quenching (FQ) binding affinity; settings: read-out: KD R275A (Site 3)
# [2] = biological target: ERK2 L265A (Rattus norvegicus (Rat), UniProt P63086, L265A); experiment: Fluorescence quenching (FQ) binding affinity; settings: read-out: KD L265A (Site 4)
# Chain of ERK2 L265A (P63086 whole entry L265A): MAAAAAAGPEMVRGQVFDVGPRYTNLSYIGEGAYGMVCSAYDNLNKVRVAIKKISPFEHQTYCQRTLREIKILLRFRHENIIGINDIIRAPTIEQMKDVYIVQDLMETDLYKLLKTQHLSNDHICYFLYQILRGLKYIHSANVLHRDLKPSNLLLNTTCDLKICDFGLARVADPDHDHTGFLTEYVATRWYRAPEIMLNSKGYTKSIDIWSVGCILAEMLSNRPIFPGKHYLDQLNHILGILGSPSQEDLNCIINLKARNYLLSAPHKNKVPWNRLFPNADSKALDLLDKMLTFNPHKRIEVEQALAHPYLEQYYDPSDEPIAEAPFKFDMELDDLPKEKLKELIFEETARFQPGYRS
# [3] = biological target: ERK2 L235A (Rattus norvegicus (Rat), UniProt P63086, L235A); experiment: Fluorescence quenching (FQ) binding affinity; settings: read-out: KD L235A (Site 5)
# Chain of ERK2 L235A (P63086 whole entry L235A): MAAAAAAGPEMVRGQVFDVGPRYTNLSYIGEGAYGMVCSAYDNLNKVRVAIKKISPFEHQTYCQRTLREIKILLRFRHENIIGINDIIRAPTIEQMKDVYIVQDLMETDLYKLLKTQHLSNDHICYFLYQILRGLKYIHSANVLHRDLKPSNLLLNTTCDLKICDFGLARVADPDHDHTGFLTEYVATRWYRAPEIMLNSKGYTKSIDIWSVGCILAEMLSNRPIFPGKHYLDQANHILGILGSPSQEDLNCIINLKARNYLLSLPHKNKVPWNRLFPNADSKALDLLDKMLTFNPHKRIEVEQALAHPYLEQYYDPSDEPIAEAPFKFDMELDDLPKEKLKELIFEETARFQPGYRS
# [4] = biological target: ERK2 L198A/L232A (Rattus norvegicus (Rat), UniProt P63086, L198A/L232A); experiment: Fluorescence quenching (FQ) binding affinity; settings: read-out: KD L198A/L232A (Site 5)
# Chain of ERK2 L198A/L232A (P63086 whole entry L198A/L232A): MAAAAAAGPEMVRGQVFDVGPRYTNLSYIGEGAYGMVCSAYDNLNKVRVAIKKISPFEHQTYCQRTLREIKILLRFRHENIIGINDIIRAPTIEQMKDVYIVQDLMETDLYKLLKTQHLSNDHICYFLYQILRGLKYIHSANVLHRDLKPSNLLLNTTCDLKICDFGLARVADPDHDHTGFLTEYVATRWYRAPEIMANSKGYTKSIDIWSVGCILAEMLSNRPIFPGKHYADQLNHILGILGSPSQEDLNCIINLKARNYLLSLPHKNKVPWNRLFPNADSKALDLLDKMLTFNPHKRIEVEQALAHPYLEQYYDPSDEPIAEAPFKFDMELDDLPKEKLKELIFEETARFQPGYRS
# [5] = biological target: ERK2 L198A/L235A (Rattus norvegicus (Rat), UniProt P63086, L198A/L235A); experiment: Fluorescence quenching (FQ) binding affinity; settings: read-out: KD L198A/L235A (Site 5)
# Chain of ERK2 L198A/L235A (P63086 whole entry L198A/L235A): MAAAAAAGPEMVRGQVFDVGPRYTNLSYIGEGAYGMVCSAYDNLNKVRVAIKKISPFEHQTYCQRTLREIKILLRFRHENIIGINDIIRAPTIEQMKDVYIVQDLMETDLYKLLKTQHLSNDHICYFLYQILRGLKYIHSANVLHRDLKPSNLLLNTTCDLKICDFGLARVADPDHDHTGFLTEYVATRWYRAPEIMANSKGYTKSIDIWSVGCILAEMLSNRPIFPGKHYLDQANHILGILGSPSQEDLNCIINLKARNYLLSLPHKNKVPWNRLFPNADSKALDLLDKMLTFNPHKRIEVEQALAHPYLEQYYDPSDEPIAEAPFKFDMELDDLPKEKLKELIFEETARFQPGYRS
# [6] = test system: ERK1/2-mediated phosphorylation of Elk-1; experiment: Immunoblot of ERK1/2-mediated Elk-1 phosphorylation in EGF treated HeLa cells; format: cell-based; settings: 100 μM, EGF 25 ng/mL 10 min
# Experimental: (b) HeLa cells were pre-incubated for 30 min with indicated compounds (100 μM) followed by treatment with EGF (25 ng/mL) for 10 min. to activate ERK1/2 signaling. Lysates were immunoblotted for phosphorylated Elk1 (pElk1 S383) or active ERK1/2 (pERK1/2). […] The MEK1/2 inhibitor U0126 (10 μM) was used to block all ERK1/2 signaling and α-tubulin expression was used as a protein loading control.
# [7] = test system: c-Fos, Fra1, and FosB expression; experiment: Immunoblot of EGF-induced c-Fos, Fra1 and FosB expression in HeLa cells; format: cell-based; settings: EGF 25 ng/mL
# Experimental: FIG. 3. EGF-mediated induction of AP-1 proteins is inhibited by SF-3-026 and SF-3-030. (a) HeLa cells were treated for 10, 30, or 60 min. with EGF (25 ng/mL) in the presence of 50 μM SF-3-026 or 10 μM U0126. Protein lysates were immunoblotted for c-Fos, Fra1, FosB and FosB2. Phosphorylated ERK1/2 is not affected by SF-3-026 and α-tubulin expression is shown for a protein loading control. (b) Protein lysates from HeLa cells treated for 30 min. with EGF in the absence or presence of 10, 25, 50, or 100 μM of SF-3-026 or SF-3-030 were immunoblotted for c-Fos, Fra1, FosB, FosB2, as well as phosphorylated ERK1/2 and MEK1/2. Total ERK2 and α-tubulin expression are shown for protein loading controls. Data are representative of three independent experiments.
# Analysis of protein expression levels, activity, and cell proliferation were done as previously described. […] Proteins were separated by SDS-PAGE, analyzed by immunoblotting, and detected using enhanced chemiluminescence (ECL, GE Healthcare, United Kingdom).
# The reported half-life for c-Fos is ˜10 minutes and growth factor-mediated stabilization of c-Fos protein expression can be observed within 30-60 minutes, whereas stabilization of Fra1 protein is delayed due to AP-1 regulation of the Fra1 promoter. Thus, growth factor-mediated induction of c-Fos, Fra1, and FosB expression was evaluated following treatment with SF-3-026. […]
# Chain of ERK2 R275A (P63086 whole entry R275A): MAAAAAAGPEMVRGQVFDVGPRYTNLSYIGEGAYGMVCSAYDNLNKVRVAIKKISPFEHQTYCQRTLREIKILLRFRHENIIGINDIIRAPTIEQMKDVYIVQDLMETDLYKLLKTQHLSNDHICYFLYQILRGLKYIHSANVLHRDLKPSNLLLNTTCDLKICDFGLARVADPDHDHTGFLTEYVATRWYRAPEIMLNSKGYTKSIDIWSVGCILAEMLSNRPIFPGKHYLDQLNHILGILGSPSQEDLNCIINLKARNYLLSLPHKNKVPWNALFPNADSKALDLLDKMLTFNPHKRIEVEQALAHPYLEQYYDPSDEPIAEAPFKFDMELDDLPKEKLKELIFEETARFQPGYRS
structure (smiles),measurement,setting,value
O=S1(=O)C=CC(OS(=O)(=O)c2ccccc2)C1 (stereo not shown) [SF-3-026],Kd,[1],240 nM
same,Kd,[2],280 nM
same,Kd,[3],90 ± 20 nM
same,Kd,[4],140 ± 20 nM
same,Kd,[5],> 20000 nM
same,inhibition of ERK1/2-mediated Elk-1 phosphorylation,[6],inhibit ERK1/2-mediated phosphorylation
same,"inhibition of EGF-induced c-Fos, Fra1, and FosB expression",[7],dramatic inhibition
